Laboratory results taken from patent US20210032257A1, “(E)-1-(4-(DIMETHYLAMINO)BUT-2-ENOYL)PYRROLIDIN-3-YL 4-((3-ISOPROPYL-5-METHYLPYRAZOLO[1,5-A]PYRIMIDIN-7-YL)AMINO)PIPERIDINE-1-CARBOXYLATE FOR INHIBITING CDK7” (Eli Lilly and Company, priority 2017, published 2021).

Legend:
Test in all cases: Biomarker study proliferation (CellTiter-Glo)
Assay type in all cases: cell-based
[1] = tested on: T98G
How it was run: (§1)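 Seeding density 5000 cells/well; overnight recovery; compound 10-pt, 1:3; 7 d, 37 °C, 5% CO2; CellTiter-Glo, 15 min RT; luminescence. Ctrl: staurosporine 5 μM final.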

[2] = tested on: MKN45
How it was run: as §1

[3] = tested on: OVCAR8
How it was run: as §1

[4] = tested on: NCIH1299
How it was run: as §1

[5] = tested on: NCIH522
How it was run: as §1

[6] = tested on: HOS
How it was run: as §1

[7] = tested on: HEPG2
How it was run: as §1

[8] = tested on: SNU308
How it was run: as §1

[9] = tested on: MHCC97H
How it was run: as §1

[10] = tested on: HCC1569
How it was run: as §1

[11] = tested on: KP4
How it was run: as §1

[12] = tested on: MCF7
How it was run: as §1

[13] = tested on: DMS53
How it was run: as §1

[14] = tested on: SKMES1
How it was run: as §1

[15] = tested on: MDAMB468
How it was run: as §1

[16] = tested on: UACC812
How it was run: as §1

[17] = tested on: HCC827
How it was run: as §1

[18] = tested on: SW900
How it was run: as §1

[19] = Homo sapiens, 168 h, read-out: Anti-proliferation effect IC50

Cc1cc(NC2CCN(C(=O)O[C@H]3CCN(C(=O)/C=C/CN(C)C)C3)CC2)n2ncc(C(C)C)c2n1 [Example 1, [(3S)-1-[(E)-4-(dimethylamino)but-2-enoyl]pyrrolidin-3-yl] 4-[(3-isopropyl-5-methyl-pyrazolo[1,5-a]pyrimidin-7-yl)amino]piperidine-1-carboxylate]
Anti-proliferation effect % Inh. ([1]; CNS, 7 days): 44%
Anti-proliferation effect Outcome ([1]; CNS, 7 days): Insensitive (insensitive (IC50≥1 μM))
IC50 [1, 19]: 1370 nM
IC50 ([2]; Homo sapiens, MKN-45, 168 h, read-out: Anti-proliferation effect IC50): 56 nM
Anti-proliferation effect % Inh. ([2]; MKN45, STOMACH, 7 days): 79%
Anti-proliferation effect Outcome ([2]; MKN45, STOMACH, 7 days): Cytotoxic (cytotoxic (IC50<1 μM and % inhibition ≥70%))
IC50 ([3]; Homo sapiens, OVCAR-8, 168 h, read-out: Anti-proliferation effect IC50): 65 nM
Anti-proliferation effect % Inh. ([3]; OVCAR8, OVARY, 7 days): 90%
Anti-proliferation effect Outcome ([3]; OVCAR8, OVARY, 7 days): Cytotoxic (cytotoxic (IC50<1 μM and % inhibition ≥70%))
IC50 ([4]; Homo sapiens, NCI-H1299, 168 h, read-out: Anti-proliferation effect IC50): 195 nM
Anti-proliferation effect % Inh. ([4]; NCIH1299, LUNG, 7 days): 44%
Anti-proliferation effect Outcome ([4]; NCIH1299, LUNG, 7 days): Cytostatic (cytostatic (IC50<1 μM and % inhibition <70%))
IC50 ([5]; Homo sapiens, NCI-H522, 168 h, read-out: Anti-proliferation effect IC50): 107 nM
Anti-proliferation effect % Inh. ([5]; NCIH522, LUNG, 7 days): 50%
Anti-proliferation effect Outcome ([5]; NCIH522, LUNG, 7 days): Cytostatic (cytostatic (IC50<1 μM and % inhibition <70%))
Anti-proliferation effect % Inh. ([6]; BONE, 7 days): 72%
Anti-proliferation effect Outcome ([6]; BONE, 7 days): Cytotoxic (cytotoxic (IC50<1 μM and % inhibition ≥70%))
IC50 [6, 19]: 90 nM
Anti-proliferation effect % Inh. ([7]; HEPG2, LIVER, 7 days): 78%
Anti-proliferation effect Outcome ([7]; HEPG2, LIVER, 7 days): Cytotoxic (cytotoxic (IC50<1 μM and % inhibition ≥70%))
IC50 ([7]; Homo sapiens, HepG2, 168 h, read-out: Anti-proliferation effect IC50): 28 nM
IC50 ([8]; 168 h, read-out: Anti-proliferation effect IC50): 184 nM
Anti-proliferation effect % Inh. ([8]; SNU308, BILIARY, 7 days): 61%
Anti-proliferation effect Outcome ([8]; SNU308, BILIARY, 7 days): Cytostatic (cytostatic (IC50<1 μM and % inhibition <70%))
IC50 [9, 19]: 243 nM
Anti-proliferation effect % Inh. ([9]; LIVER, 7 days): 59%
Anti-proliferation effect Outcome ([9]; LIVER, 7 days): Cytostatic (cytostatic (IC50<1 μM and % inhibition <70%))
Anti-proliferation effect % Inh. ([10]; HCC1569, BREAST, 7 days): 45%
Anti-proliferation effect Outcome ([10]; HCC1569, BREAST, 7 days): Cytostatic (cytostatic (IC50<1 μM and % inhibition <70%))
IC50 ([10]; Homo sapiens, HCC1569, 168 h, read-out: Anti-proliferation effect IC50): 67 nM
IC50 ([11]; Homo sapiens, KP-4, 168 h, read-out: Anti-proliferation effect IC50): 36 nM
Anti-proliferation effect % Inh. ([11]; KP4, PANCREAS, 7 days): 65%
Anti-proliferation effect Outcome ([11]; KP4, PANCREAS, 7 days): Cytostatic (cytostatic (IC50<1 μM and % inhibition <70%))
IC50 ([12]; Homo sapiens, MCF7, 168 h, read-out: Anti-proliferation effect IC50): 155 nM
Anti-proliferation effect % Inh. ([12]; MCF7, BREAST, 7 days): 58%
Anti-proliferation effect Outcome ([12]; MCF7, BREAST, 7 days): Cytostatic (cytostatic (IC50<1 μM and % inhibition <70%))
Anti-proliferation effect % Inh. ([13]; DMS53, LUNG, 7 days): 66%
Anti-proliferation effect Outcome ([13]; DMS53, LUNG, 7 days): Cytostatic (cytostatic (IC50<1 μM and % inhibition <70%))
IC50 ([13]; Homo sapiens, DMS-53, 168 h, read-out: Anti-proliferation effect IC50): 118 nM
IC50 ([14]; Homo sapiens, SK-MES-1, 168 h, read-out: Anti-proliferation effect IC50): 28 nM
Anti-proliferation effect % Inh. ([14]; SKMES1, LUNG, 7 days): 80%
Anti-proliferation effect Outcome ([14]; SKMES1, LUNG, 7 days): Cytotoxic (cytotoxic (IC50<1 μM and % inhibition ≥70%))
IC50 ([15]; Homo sapiens, MDA-MB-468, 168 h, read-out: Anti-proliferation effect IC50): 8 nM
Anti-proliferation effect % Inh. ([15]; MDAMB468, BREAST, 7 days): 100%
Anti-proliferation effect Outcome ([15]; MDAMB468, BREAST, 7 days): Cytotoxic (cytotoxic (IC50<1 μM and % inhibition ≥70%))
IC50 ([16]; Homo sapiens, UACC-812, 168 h, read-out: Anti-proliferation effect IC50): 76 nM
Anti-proliferation effect % Inh. ([16]; UACC812, BREAST, 7 days): 58%
Anti-proliferation effect Outcome ([16]; UACC812, BREAST, 7 days): Cytostatic (cytostatic (IC50<1 μM and % inhibition <70%))
Anti-proliferation effect % Inh. ([17]; HCC827, LUNG, 7 days): 69%
Anti-proliferation effect Outcome ([17]; HCC827, LUNG, 7 days): Cytostatic (cytostatic (IC50<1 μM and % inhibition <70%))
IC50 ([17]; Homo sapiens, HCC827, 168 h, read-out: Anti-proliferation effect IC50): 55 nM
IC50 ([18]; Homo sapiens, SW900, 168 h, read-out: Anti-proliferation effect IC50): 3810 nM
Anti-proliferation effect % Inh. ([18]; SW900, LUNG, 7 days): 13%
Anti-proliferation effect Outcome ([18]; SW900, LUNG, 7 days): Insensitive (insensitive (IC50≥1 μM))
